Results: ChEMBL document CHEMBL6127087 (Eur J Med Chem, 2024)
pIC50, pKd: −log10 of the molar value. The source made the active and inactive calls. The calls are words filed in the database; no cut-off is given here.

Assays:
P2Y purinoceptor 6 [1] = target: T1, P2Y purinoceptor 6 (Homo sapiens, UniProt Q15077); assay: Binding affinity to P2Y6R (unknown origin) assessed as dissociation constant by SPR analysis
Mus musculus [2] = assay: (§1) Anti-inflammatory activity in LPS-induced male C57BL/6 mouse model of acute […] injury assessed as reduction in alveolar septa thickening in lung at 2 to 6 mg/kg, IG preadministered with compound for 7 days followed by LPS administration and measured after 24 hrs by H and E staining based histopathological analysis; type: functional, organism-based; conditions: dose 2-6 mg/kg, time 8.0 day
HUVEC = assay: Cytotoxicity against HUVEC cells assessed as reduction in cell survival at >10 uM incubated for 12 to 24 hrs by CCK8 assay; type: toxicity, cell-based; conditions: human, time 12-24 hrs
HEK-293T = assay: Cytotoxicity against HEK293T cells assessed as reduction in cell survival at >10 uM incubated for 12 to 24 hrs by CCK8 assay; type: toxicity, cell-based; conditions: human, time 12-24 hrs
[3] = target: P2Y purinoceptor 1 (Homo sapiens) (UniProt P47900); assay: Antagonist activity at human P2Y1R stably expressed in HEK293 cells assessed as inhibition of ADP-induced IP3 accumulation preincubated with compound for 30 mins followed by ADP addition by ELISA; type: functional, cell-based
Chain of P2Y purinoceptor 1 (Homo sapiens) (P47900 whole entry): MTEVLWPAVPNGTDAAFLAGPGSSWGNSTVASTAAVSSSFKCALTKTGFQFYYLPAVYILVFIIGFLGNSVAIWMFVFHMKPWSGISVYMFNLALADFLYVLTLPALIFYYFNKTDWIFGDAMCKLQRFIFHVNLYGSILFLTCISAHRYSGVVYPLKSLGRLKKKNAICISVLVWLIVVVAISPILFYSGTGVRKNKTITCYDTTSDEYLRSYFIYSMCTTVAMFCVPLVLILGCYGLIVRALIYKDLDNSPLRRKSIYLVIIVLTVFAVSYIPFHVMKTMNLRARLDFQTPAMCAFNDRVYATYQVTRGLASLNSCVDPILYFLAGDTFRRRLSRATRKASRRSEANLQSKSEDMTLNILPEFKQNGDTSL

Mus musculus [4] = assay: as §1, with “intact appearance of” for “reduction in”, “structure” for “septa thickening”; type: functional, organism-based; conditions: dose 2-6 mg/kg, time 8.0 day
Cytochrome P450 3A4 = Cytochrome P450 3A4 (Homo sapiens, UniProt P08684); assay: Inhibition of CYP3A4 in human liver microsomes using midazolam as substrate preincubated for 10 mins followed by NADPH addition and measured after 10 mins by LC-MS/MS analysis; type: ADME, Microsome
Chain of Cytochrome P450 3A4 (P08684 whole entry): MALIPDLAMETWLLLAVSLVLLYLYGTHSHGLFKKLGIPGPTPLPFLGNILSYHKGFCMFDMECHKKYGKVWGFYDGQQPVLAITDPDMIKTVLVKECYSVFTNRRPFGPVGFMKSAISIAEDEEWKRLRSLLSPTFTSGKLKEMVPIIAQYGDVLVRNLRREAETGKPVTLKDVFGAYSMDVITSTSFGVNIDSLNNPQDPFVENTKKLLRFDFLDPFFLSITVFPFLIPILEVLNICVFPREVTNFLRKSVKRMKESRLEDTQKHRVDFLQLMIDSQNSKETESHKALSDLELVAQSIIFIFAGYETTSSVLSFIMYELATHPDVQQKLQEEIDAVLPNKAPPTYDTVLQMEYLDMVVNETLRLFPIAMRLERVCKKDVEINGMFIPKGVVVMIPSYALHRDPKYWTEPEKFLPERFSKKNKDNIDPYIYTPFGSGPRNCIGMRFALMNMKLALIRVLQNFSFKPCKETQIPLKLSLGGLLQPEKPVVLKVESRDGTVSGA

Mus musculus [5] = assay: In vivo inhibition of NLRP3 activation in LPS-induced male C57BL/6 mouse model of acute […] injury assessed as reduction in NLRP3 level in lung at 2 to 6 mg/kg, IG preadministered with compound for 7 days followed by LPS administration and measured after 24 hrs by Western blot analysis; type: functional, organism-based; conditions: dose 2-6 mg/kg, time 8.0 day
Cytochrome P450 2C19 = Cytochrome P450 2C19 (Homo sapiens, UniProt P33261); assay: Inhibition of CYP2C19 in human liver microsomes using s-mephenytoin as substrate preincubated for 10 mins followed by NADPH addition and measured after 10 mins by LC-MS/MS analysis; type: ADME, Microsome
Chain of Cytochrome P450 2C19 (P33261 whole entry): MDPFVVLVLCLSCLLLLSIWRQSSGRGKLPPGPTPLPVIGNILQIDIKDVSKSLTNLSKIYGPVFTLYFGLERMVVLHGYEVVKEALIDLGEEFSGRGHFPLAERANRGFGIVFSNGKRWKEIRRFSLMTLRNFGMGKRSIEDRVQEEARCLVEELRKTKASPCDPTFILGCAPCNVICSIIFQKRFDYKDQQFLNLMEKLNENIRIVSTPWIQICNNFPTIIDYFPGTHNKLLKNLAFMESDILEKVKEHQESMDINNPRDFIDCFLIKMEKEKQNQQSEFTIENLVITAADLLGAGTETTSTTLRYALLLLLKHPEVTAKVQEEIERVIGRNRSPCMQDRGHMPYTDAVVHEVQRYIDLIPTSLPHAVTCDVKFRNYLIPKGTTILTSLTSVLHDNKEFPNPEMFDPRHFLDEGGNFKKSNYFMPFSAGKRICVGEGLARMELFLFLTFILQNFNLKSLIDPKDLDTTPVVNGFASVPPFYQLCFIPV

P2Y purinoceptor 6 [6] = target: T1, P2Y purinoceptor 6; assay: Antagonist activity at human P2Y6R expressed in CHO cells assessed as inhibition of UDP sodium salt-induced Ca2+ level by FLIPR calcium 6 assay; type: functional, cell-based
Mus musculus [7] = assay: (§2) Anti-inflammatory activity in LPS-induced male C57BL/6 mouse model of acute […] injury assessed as reduction in infiltration of neutrophils into lung at 2 to 6 mg/kg, IG preadministered with compound for 7 days followed by LPS administration and measured after 24 hrs by immunofluorescence analysis; type: functional, organism-based; conditions: dose 2-6 mg/kg, time 8.0 day
Mus musculus [8] = assay: as §2, with “immune cells by measuring decrease in monocytes count” for “neutrophils into lung”, “hrs” for “hrs by immunofluorescence analysis”; type: functional, organism-based; conditions: dose 2-6 mg/kg, time 8.0 day
[9] = target: T2, P2Y purinoceptor 14 (Homo sapiens) (UniProt Q15391); assay: Antagonist activity at human P2Y14R stably expressed in HEK293 cells assessed as inhibition of UDPG-induced cAMP accumulation preincubated with compound for 30 mins followed by UDPG addition by cAMP-GloTM assay; type: functional, cell-based
T2 sequence (whole entry): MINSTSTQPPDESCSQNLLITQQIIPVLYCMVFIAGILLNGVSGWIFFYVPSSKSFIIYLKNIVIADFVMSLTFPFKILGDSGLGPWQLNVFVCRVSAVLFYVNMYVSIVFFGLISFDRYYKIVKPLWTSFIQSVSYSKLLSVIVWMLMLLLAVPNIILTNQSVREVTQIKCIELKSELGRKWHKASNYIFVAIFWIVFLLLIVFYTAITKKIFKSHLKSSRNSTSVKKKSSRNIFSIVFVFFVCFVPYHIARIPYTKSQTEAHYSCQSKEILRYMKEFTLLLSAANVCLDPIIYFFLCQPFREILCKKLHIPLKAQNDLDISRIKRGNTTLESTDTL

[10] = Stability in simulated intestinal fluid assessed as half-life; type: physicochemical
[11] = Oral bioavailability in male Sprague-Dawley rat at 20 mg/kg measured after 24 hrs by LC-MS/MS analysis; type: ADME, organism-based; conditions: male, Sprague-Dawley, in vivo
[12] = Metabolic stability in human liver microsomes assessed as half-life preincubated for 10 mins followed by NADPH addition and measured upto 60 mins by LC-MS/MS analysis; type: ADME, Microsome; conditions: time < 70 min
Mus musculus [13] = assay: Anti-inflammatory activity in LPS-induced male C57BL/6 mouse model of acute […] injury assessed as improvement in pulmonary edema by measuring reduction in wet to dry ratio of lung at 2 to 6 mg/kg, IG preadministered with compound for 7 days followed by LPS administration and measured after 24 hrs; type: functional, organism-based; conditions: dose 2-6 mg/kg, time 8.0 day
Mus musculus [14] = assay: as §1, with “inflammatory infiltration” for “alveolar septa thickening”; type: functional, organism-based; conditions: dose 2-6 mg/kg, time 8.0 day
Mus musculus [15] = assay: Anti-inflammatory activity in LPS-induced male C57BL/6 mouse model of acute […] injury assessed as inhibition of CXCL1 release at 2 to 6 mg/kg, IG preadministered with compound for 7 days followed by LPS administration and measured after 24 hrs by ELISA; type: functional, organism-based; conditions: dose 2-6 mg/kg, time 8.0 day
Cytochrome P450 2C9 = Cytochrome P450 2C9 (Homo sapiens, UniProt P11712); assay: Inhibition of CYP2C9 in human liver microsomes using diclofenac as substrate preincubated for 10 mins followed by NADPH addition and measured after 10 mins by LC-MS/MS analysis; type: ADME, Microsome
Chain of Cytochrome P450 2C9 (P11712 whole entry): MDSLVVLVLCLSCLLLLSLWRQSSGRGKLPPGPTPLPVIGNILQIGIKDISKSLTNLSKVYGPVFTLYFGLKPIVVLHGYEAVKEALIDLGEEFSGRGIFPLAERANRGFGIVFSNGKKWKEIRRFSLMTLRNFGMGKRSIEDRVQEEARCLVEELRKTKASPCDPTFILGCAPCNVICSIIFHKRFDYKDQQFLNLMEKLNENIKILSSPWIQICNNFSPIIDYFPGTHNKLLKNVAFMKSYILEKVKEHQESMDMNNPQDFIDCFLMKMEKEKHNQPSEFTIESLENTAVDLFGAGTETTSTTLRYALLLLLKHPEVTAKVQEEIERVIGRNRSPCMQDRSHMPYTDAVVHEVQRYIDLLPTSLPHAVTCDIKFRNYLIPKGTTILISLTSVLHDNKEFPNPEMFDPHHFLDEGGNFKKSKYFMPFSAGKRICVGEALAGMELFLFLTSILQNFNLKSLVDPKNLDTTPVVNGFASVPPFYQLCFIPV

[16] = Clearance in male Sprague-Dawley rat at 20 mg/kg, po measured after 24 hrs by LC-MS/MS analysis; type: ADME, organism-based; conditions: in vivo
[17] = target: P2Y purinoceptor 2 (Homo sapiens) (UniProt P41231); assay: Antagonist activity at human P2Y2R stably expressed in HEK293 cells assessed as inhibition of UTP-induced IP3 accumulation preincubated with compound for 30 mins followed by UTP addition by ELISA; type: functional, cell-based
Chain of P2Y purinoceptor 2 (Homo sapiens) (P41231 whole entry): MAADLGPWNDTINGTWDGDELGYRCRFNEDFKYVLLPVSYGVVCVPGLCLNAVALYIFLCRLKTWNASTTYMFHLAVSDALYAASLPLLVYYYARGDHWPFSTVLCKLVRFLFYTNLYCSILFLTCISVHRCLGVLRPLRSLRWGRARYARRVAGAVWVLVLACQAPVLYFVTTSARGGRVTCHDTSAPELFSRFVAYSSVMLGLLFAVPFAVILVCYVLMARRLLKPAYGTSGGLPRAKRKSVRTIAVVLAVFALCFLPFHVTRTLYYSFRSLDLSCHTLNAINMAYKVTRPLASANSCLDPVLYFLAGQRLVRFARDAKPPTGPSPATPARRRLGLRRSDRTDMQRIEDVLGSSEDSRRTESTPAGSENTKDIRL

Cytochrome P450 1A2 = target: T3, Cytochrome P450 1A2 (Homo sapiens, UniProt P05177); assay: Inhibition of CYP1A2 in human liver microsomes using phenacetin as substrate preincubated for 10 mins followed by NADPH addition and measured after 10 mins by LC-MS/MS analysis; type: ADME, Microsome
T3 sequence (P05177 whole entry): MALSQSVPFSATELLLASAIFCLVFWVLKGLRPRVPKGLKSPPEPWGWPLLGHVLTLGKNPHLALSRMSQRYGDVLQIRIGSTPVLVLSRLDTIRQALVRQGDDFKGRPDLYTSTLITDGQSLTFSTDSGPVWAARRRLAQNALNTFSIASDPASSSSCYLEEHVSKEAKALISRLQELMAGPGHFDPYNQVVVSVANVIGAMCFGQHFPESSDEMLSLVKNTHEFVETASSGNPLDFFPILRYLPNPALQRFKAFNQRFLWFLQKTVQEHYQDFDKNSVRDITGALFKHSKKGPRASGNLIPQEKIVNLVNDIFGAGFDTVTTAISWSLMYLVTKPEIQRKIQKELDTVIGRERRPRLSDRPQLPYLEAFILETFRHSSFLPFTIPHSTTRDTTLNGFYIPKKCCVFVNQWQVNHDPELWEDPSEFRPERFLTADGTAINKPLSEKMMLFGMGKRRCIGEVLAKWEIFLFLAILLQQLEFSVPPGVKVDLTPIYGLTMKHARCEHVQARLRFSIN

T1 sequence (Q15077 whole entry): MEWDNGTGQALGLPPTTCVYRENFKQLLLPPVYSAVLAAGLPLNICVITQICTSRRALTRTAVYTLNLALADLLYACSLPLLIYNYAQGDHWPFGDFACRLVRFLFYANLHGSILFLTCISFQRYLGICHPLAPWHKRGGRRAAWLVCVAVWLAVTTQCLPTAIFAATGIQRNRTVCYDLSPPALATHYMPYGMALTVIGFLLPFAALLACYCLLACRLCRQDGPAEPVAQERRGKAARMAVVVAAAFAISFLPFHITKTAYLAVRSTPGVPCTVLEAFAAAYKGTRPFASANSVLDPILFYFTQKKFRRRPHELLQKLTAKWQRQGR

With `O=C(O)CCC(=O)N1N=C(c2ccc[nH]2)CC1c1cnc2ccccc2c1` (stereo not drawn) as the molecule, how does the pKd (P2Y purinoceptor 6 [1]) read?
Its pKd is 5.85.

And the Activity (Mus musculus [2])?
Its Activity is “Active”.

And the Activity (HUVEC)?
Its Activity is “Non-Toxic”.

And the Activity (HEK-293T)?
Its Activity is “Non-Toxic”.

And the Activity [3]?
The Activity was “inactive”.

And the Activity (Mus musculus [4])?
Its Activity is “Active”.

What about the pIC50 (Cytochrome P450 3A4) of the same molecule?
The pIC50 was under 4.30.

What about the inhibition (Mus musculus [5]) of the same molecule?
The inhibition was “Active”.

And the pIC50 (Cytochrome P450 2C19)?
The pIC50 was under 4.30.

What about the pIC50 (P2Y purinoceptor 6 [6]) of the same molecule?
Its pIC50 is 7.71.

What about the Activity (Mus musculus [7]) of the same molecule?
The Activity was “Active”.

What about the Activity (Mus musculus [8]) of the same molecule?
The Activity was “Active”.

What about the Activity [9] of the same molecule?
The Activity was “inactive”.

What about the half-life [10] of the same molecule?
Its half-life is over 5 h.

What about the bioavailability [11] of the same molecule?
The bioavailability was 43%.

And the half-life [12]?
The half-life was 3.55 h.

And the Activity (Mus musculus [13])?
Its Activity is “Active”.

And the Activity (Mus musculus [14])?
The Activity was “Active”.

What about the Activity (Mus musculus [15]) of the same molecule?
Its Activity is “Active”.

And the pIC50 (Cytochrome P450 2C9)?
Its pIC50 is 4.63.

What about the CL/F [16] of the same molecule?
The CL/F was 1.7 L/h/kg.

What about the Activity [17] of the same molecule?
Its Activity is “inactive”.

What about the pIC50 (Cytochrome P450 1A2) of the same molecule?
Its pIC50 is under 4.30.
